Reference: patent US10766869B2, “Triazoles for the treatment of demyelinating dieases” (Vertex Pharmaceuticals Incorporated, priority 2015, dated 2020)
Read-outs that look alike come from different tables or passages of the source.

System: primary rat mixed cortical cells
Test: In vitro myelination assay (MBP positive myelin strands, fold myelin pixels above background)
Type: cell-based
Conditions: Rattus norvegicus; for fold induction at 1 µM: 1.0 μM compound; for fold induction at 10 µM: 10.0 μM compound
Outline: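 P1 rat cortical cells (neurons, OPCs, oligodendrocytes, astrocytes, microglia) were cultured 14 days at 37 °C with compound, with half-medium changes containing 1× compound on days 6 and 10. Fixed cells were immunostained for MBP and imaged at 10×. Total MBP myelin pixels per well were expressed as fold above no-compound baseline at 1.0 μM and 10.0 μM.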

[1] = read-out: Fold myelin pixels above background relative to baseline of no added compound
[2] = relative to baseline of no added compound, read-out: Fold myelin pixels above background
[3] = relative to baseline of no added compound, read-out: Fold myelin pixels above background, 1.0 μM
[4] = relative to baseline of no added compound, read-out: Fold myelin pixels above background, 10.0 μM

[2H]C1([2H])OC([2H])([2H])C([2H])([2H])N(c2cc(C)cc(Nc3ncn(-c4ccc(F)c(F)c4)n3)c2)C1([2H])[2H] [Compound 1066, 1-(3,4-difluorophenyl)-N-[3-methyl-5-(2,2,3,3,5,5,6,6-octadeuteriomorpholin-4-yl)phenyl]-1,2,4-triazol-3-amine]
fold induction at 1 µM [1]: 10 to 100
fold induction at 10 µM [1]: ≤ 1

COc1ccc(-n2cnc(Nc3cc(C)cc(N4CC(N5CCOCC5)C4)c3)n2)cc1 [Compound 841, 1-(4-methoxyphenyl)-N-[3-methyl-5-(3-morpholinoazetidin-1-yl)phenyl]-1,2,4-triazol-3-amine]
fold induction at 1 µM [1]: 1 to 10
fold induction at 10 µM [1]: 10 to 100

[2H]C1([2H])N(c2cc(C)cc(Nc3ncn(-c4cc(F)cc(F)c4)n3)c2)C([2H])([2H])C([2H])([2H])N(C2COC2)C1([2H])[2H] [Compound 979, 1-(3,5-difluorophenyl)-N-[3-methyl-5-[2,2,3,3,5,5,6,6-octadeuterio-4-(oxetan-3-yl)piperazin-1-yl]phenyl]-1,2,4-triazol-3-amine]
fold induction at 1 µM [1]: 100 to 1000
fold induction at 10 µM [1]: ≤ 1

CC(=O)N(C)C1CCN(c2cc(C)cc(Nc3ncn(-c4cc(F)cc(F)c4)n3)c2)C1 (stereo not shown) [Compound 500, N-[1-[3-[[1-(3,5-difluorophenyl)-1,2,4-triazol-3-yl]amino]-5-methyl-phenyl]pyrrolidin-3-yl]-N-methyl-acetamide]
fold induction at 1 µM [2]: 100 to 1000
fold induction at 10 µM [2]: 1 to 10

COCCN(C)c1cc(F)cc(-n2cnc(Nc3cc(C)cc(N4CCN(C5COC5)CC4)c3)n2)c1 [Compound 373, 1-[3-fluoro-5-[2-methoxyethyl(methyl)amino]phenyl]-N-[3-methyl-5-[4-(oxetan-3-yl)piperazin-1-yl]phenyl]-1,2,4-triazol-3-amine]
fold induction at 1 µM [3]: 100 to 1000
fold induction at 10 µM [4]: 100 to 1000

Cc1cc(CN2CCN(C3COC3)CC2)cc(Nc2ncn(-c3cc(F)cc(F)c3)n2)c1 [Compound 596, 1-(3,5-difluorophenyl)-N-[3-methyl-5-[[4-(oxetan-3-yl)piperazin-1-yl]methyl]phenyl]-1,2,4-triazol-3-amine]
fold induction at 1 µM [2]: 10 to 100
fold induction at 10 µM [2]: 10 to 100

c1ccc(-n2cnc(Nc3cc(C4CC4)nc(N4CCOCC4)c3)n2)cc1 [Compound 222, 2-cyclopropyl-6-morpholino-N-(1-phenyl-1,2,4-triazol-3-yl)pyridin-4-amine]
fold induction at 1 µM [3]: 100 to 1000
fold induction at 10 µM [4]: 1 to 10

Fc1cc(F)cc(-n2cnc(Nc3cc(N4CC(N5CCOCC5)C4)cc(Cl)n3)n2)c1 [Compound 660, 6-chloro-N-[1-(3,5-difluorophenyl)-1,2,4-triazol-3-yl]-4-(3-morpholinoazetidin-1-yl)pyridin-2-amine]
fold induction at 1 µM [2]: ≤ 1
fold induction at 10 µM [2]: ≤ 1

CCc1cc(Nc2ncn(-c3cccc(F)c3F)n2)cc(N2CCN(C3COC3)CC2)c1 [Compound 276, 1-(2,3-difluorophenyl)-N-[3-ethyl-5-[4-(oxetan-3-yl)piperazin-1-yl]phenyl]-1,2,4-triazol-3-amine]
fold induction at 1 µM [3]: ≤ 1
fold induction at 10 µM [4]: 1 to 10

Cc1cc(Nc2ncn(-c3cc(F)cc(F)c3)n2)cc(N2CCC(N3CCN(C)CC3)CC2)c1 [Compound 772, 1-(3,5-difluorophenyl)-N-[3-methyl-5-[4-(4-methylpiperazin-1-yl)-1-piperidyl]phenyl]-1,2,4-triazol-3-amine]
fold induction at 1 µM [2]: 1 to 10
fold induction at 10 µM [2]: ≤ 1

Cc1cc(Nc2ncn(-c3cc(F)cc(F)c3)n2)cc(N2CCC(CN3CCOCC3)CC2)c1 [Compound 984, 1-(3,5-difluorophenyl)-N-[3-methyl-5-[4-(morpholinomethyl)-1-piperidyl]phenyl]-1,2,4-triazol-3-amine]
fold induction at 1 µM [1]: 10 to 100
fold induction at 10 µM [1]: ≤ 1

Cc1cc(CN2CCN(C3COC3)CC2)c(F)c(Nc2ncn(-c3ccc(F)c(F)c3)n2)c1 [Compound 834, 1-(3,4-difluorophenyl)-N-[2-fluoro-5-methyl-3-[[4-(oxetan-3-yl)piperazin-1-yl]methyl]phenyl]-1,2,4-triazol-3-amine]
fold induction at 1 µM [1]: 1 to 10
fold induction at 10 µM [1]: 1 to 10

Cc1cc(Nc2ncn(-c3cc(F)cc(F)c3)n2)cc(N2CCN(C3CSC3)CC2)c1 [Compound 95, 1-(3,5-difluorophenyl)-N-[3-methyl-5-[4-(thietan-3-yl)piperazin-1-yl]phenyl]-1,2,4-triazol-3-amine]
fold induction at 1 µM [3]: 10 to 100
fold induction at 10 µM [4]: ≤ 1

Cc1cc(Nc2ncn(-c3ccccc3)n2)cc(N2CCN(C3CCOC3C)CC2)c1 (stereo not shown) [Compound 127, N-[3-methyl-5-[4-(2-methyltetrahydrofuran-3-yl)piperazin-1-yl]phenyl]-1-phenyl-1,2,4-triazol-3-amine]
fold induction at 1 µM [3]: 1000 to 10000
fold induction at 10 µM [4]: 1 to 10

Cc1cc(Nc2ncn(-c3cc(F)cc(F)c3)n2)cc(N2CCC[C@H]2CN2CCOCC2)c1 (single isomer, unassigned) [Compound 919]
fold induction at 1 µM [1]: 10 to 100
fold induction at 10 µM [1]: ≤ 1

Cc1cc(Nc2ncn(-c3cc(F)cc(F)c3)n2)nc(N2CCN(C3CCOC3)CC2)c1 (stereo not shown) [Compound 562, N-[1-(3,5-difluorophenyl)-1,2,4-triazol-3-yl]-4-methyl-6-(4-tetrahydrofuran-3-ylpiperazin-1-yl)pyridin-2-amine]
fold induction at 1 µM [2]: 1 to 10
fold induction at 10 µM [2]: 1 to 10

Cc1cc(Nc2ncn(-c3cc(F)cc(F)c3)n2)cc(C2=CCN(C3COC3)CC2)c1 [Compound 61, 1-(3,5-difluorophenyl)-N-[3-methyl-5-[1-(oxetan-3-yl)-3,6-dihydro-2H-pyridin-4-yl]phenyl]-1,2,4-triazol-3-amine]
fold induction at 1 µM [3]: 1000 to 10000
fold induction at 10 µM [4]: ≤ 1

Cc1ccc(-n2cnc(Nc3cc(C)cc(N4CCCC4)c3)n2)cc1 [Compound 372, N-(3-methyl-5-pyrrolidin-1-yl-phenyl)-1-(p-tolyl)-1,2,4-triazol-3-amine]
fold induction at 1 µM [3]: 1 to 10
fold induction at 10 µM [4]: 10 to 100

Cc1cc(Nc2ncn(-c3cc(F)cc(F)c3)n2)cc(C2CCCN(C3CC(C(=O)O)C3)C2)c1 (stereo not shown) [Compound 442, 3-[3-[3-[[1-(3,5-difluorophenyl)-1,2,4-triazol-3-yl]amino]-5-methyl-phenyl]-1-piperidyl]cyclobutanecarboxylic acid]
fold induction at 1 µM [2]: 10 to 100
fold induction at 10 µM [2]: 10 to 100

FC(F)(F)c1cc(Nc2ncn(-c3ccccc3)n2)nc(N2CCN(C3COC3)CC2)c1 [Compound 547, 6-[4-(oxetan-3-yl)piperazin-1-yl]-N-(1-phenyl-1,2,4-triazol-3-yl)-4-(trifluoromethyl)pyridin-2-amine]
fold induction at 1 µM [2]: 100 to 1000
fold induction at 10 µM [2]: 10 to 100

CN1CCN(c2cc(Nc3ncn(-c4cc(F)cc(F)c4)n3)cc(C(F)(F)F)c2)CC1 [Compound 63, 1-(3,5-difluorophenyl)-N-[3-(4-methylpiperazin-1-yl)-5-(trifluoromethyl)phenyl]-1,2,4-triazol-3-amine]
fold induction at 1 µM [3]: 10 to 100
fold induction at 10 µM [4]: 1 to 10

COc1cc(-n2cnc(Nc3cc(C)cc(N4CCN(C5COC5)CC4)c3)n2)ncn1 [Compound 254, 1-(6-methoxypyrimidin-4-yl)-N-[3-methyl-5-[4-(oxetan-3-yl)piperazin-1-yl]phenyl]-1,2,4-triazol-3-amine]
fold induction at 1 µM [3]: ≤ 1
fold induction at 10 µM [4]: 100 to 1000

Cc1cc(Nc2ncn(-c3ccccc3)n2)cc(O[C@@H]2CCN(C3COC3)C2)c1 [Compound 391, N-[3-methyl-5-[(3R)-1-(oxetan-3-yl)pyrrolidin-3-yl]oxy-phenyl]-1-phenyl-1,2,4-triazol-3-amine]
fold induction at 1 µM [2]: 1000 to 10000
fold induction at 10 µM [2]: 100 to 1000

COc1ccc(-n2cnc(Nc3cc(C)cc(N4CCN(C5COC5)CC4)c3)n2)cc1F [Compound 624, 1-(3-fluoro-4-methoxy-phenyl)-N-[3-methyl-5-[4-(oxetan-3-yl)piperazin-1-yl]phenyl]-1,2,4-triazol-3-amine]
fold induction at 1 µM [2]: 10 to 100
fold induction at 10 µM [2]: ≤ 1

Fc1cc(-n2cnc(Nc3cc(C(F)F)cc(N4CCN(C5COC5)CC4)c3)n2)ccn1 [Compound 189, N-[3-(difluoromethyl)-5-[4-(oxetan-3-yl)piperazin-1-yl]phenyl]-1-(2-fluoro-4-pyridyl)-1,2,4-triazol-3-amine]
fold induction at 1 µM [3]: 100 to 1000
fold induction at 10 µM [4]: ≤ 1

FC(F)c1cc(Nc2ncn(-c3ccccc3)n2)cc(N2CCN(C3CC3)CC2)c1 [Compound 348, N-[3-(4-cyclopropylpiperazin-1-yl)-5-(difluoromethyl)phenyl]-1-phenyl-1,2,4-triazol-3-amine]
fold induction at 1 µM [3]: 1000 to 10000
fold induction at 10 µM [4]: 100 to 1000

Cc1cc(Nc2ncn(-c3ccccc3)n2)cc(N2C[C@@H]3C[C@H]2CN3C2CC2)c1 [Compound 292, N-[3-[(1S,4S)-2-cyclopropyl-2,5-diazabicyclo[2.2.1]heptan-5-yl]-5-methyl-phenyl]-1-phenyl-1,2,4-triazol-3-amine]
fold induction at 1 µM [3]: 100 to 1000
fold induction at 10 µM [4]: 10 to 100

Cc1cc(Nc2ncn(-c3cccc(F)c3)n2)cc(C2COC2)c1 [Compound 147, 1-(3-fluorophenyl)-N-[3-methyl-5-(oxetan-3-yl)phenyl]-1,2,4-triazol-3-amine]
fold induction at 1 µM [3]: 1000 to 10000
fold induction at 10 µM [4]: 10 to 100

CC(C)c1cc(Nc2ncn(-c3ccncn3)n2)cc(N2CCN(C3COC3)CC2)c1 [Compound 511, N-[3-isopropyl-5-[4-(oxetan-3-yl)piperazin-1-yl]phenyl]-1-pyrimidin-4-yl-1,2,4-triazol-3-amine]
fold induction at 1 µM [2]: 100 to 1000
fold induction at 10 µM [2]: 100 to 1000
